Experimental data published in patent publication US8940739B2, “Compound of a reverse-turn mimetic and a production method and use therefor” (JW Pharmaceutical Corporation, priority 2010, dated 2015).
Converted amounts (≈) assume the structure as drawn.

Legend:
[1] = target: cDNA-expressed human hepatic CYP3A4 (Homo sapiens (Human), UniProt P08684); assay: Measurement of CYP (IC50 of P450 CYP3A4), BFC substrate; assay type: in vitro ADME; settings: 20 minutes
Outline: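 cDNA-expressed human CYP3A4 supersomes in 0.1M potassium phosphate pH 7.4 with 8.3 mM MgCl2, 1.67 mM EDTA and 0.25 mM NADPH; compounds in acetonitrile (<1% final). Reaction started with 30 µM BFC, 20 min at 37. 7-Hydroxy-4-trifluoromethyl-coumarin read by fluorescence (ex 409/em 530 nm).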

[2] = MLM, hepatic metabolic stability; assay type: in vitro ADME; settings: mouse hepatic microsome, amount at 30 minutes compared with 0 minutes
Procedure: For the sake of retaining efficacy of novel drugs and preventing side-effects, hepatic metabolic stability is regarded as very important. Hepatic metabolic stability is typically determined using microsome or S9. In the present test, a microsome having CYP450 as a main component, which plays a great role in metabolism, was used to evaluate the metabolic stability.
This assay was performed in a 200 l volume in a 13 ml glass tube using mouse hepatic microsome whose activity was measured.
The compounds of Examples 1 to 5 were dissolved in DMSO (dimethyl sulfoxide) to prepare a 25 mM stock solution, which was then diluted with 50% acetonitrile and used in the test. A potassium phosphate buffer (pH 7.4, final concentration 0.1M), MgCl2 (final concentration 0.1M), a diluted inventive compound stock solution (final concentration 1 mM), and a mouse microsome (final concentration 5 mg/ml) were added to the glass tube. The reaction was initiated by the addition of a cofactor NADPH (final concentration 12.5 mM) after pre-incubation at 37 for 3 minutes. The reaction was carried out at 37 for 10 minutes and 30 minutes, and then terminated with 1000 μl of acetonitrile, and the remaining inventive compound was extracted. The centrifugation was conducted at 3000 rpm for 10 minutes, after which the supernatant was dried and dissolved again in 150 μl of 50% acetonitrile and quantitatively analyzed by HPLC. 0 minutes and 30 minutes after reaction, the amounts of the compounds of the present invention were compared thus evaluating the extent of metabolic stability.

[3] = tested on: MV-4-11 (human, Acute Myeloid Leukemia cell line) cells; assay: Cell growth inhibition assay, GI50 of MV-4-11; assay type: cell-based; settings: Homo sapiens, MV4-11, 72 h, MV-4-11 cells
Outline: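 MV-4-11 AML cells (5×10^4/well, IMDM with 10% FBS) treated in duplicate with serially diluted compounds for 72 hours at 37 °C. Viability read as absorbance at 490 nm after CellTiter 96 Aqueous One (MTS) addition; GI50 calculated from the concentration-response.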

[4] = Solubility in physiological saline; assay type: physicochemical; settings: saline or isotonic, thermodynamic from solid, 10 mg in 0.25 ml
Procedure: 2) Evaluation of Solubility of Compound E-5
Compound E-5, Compound E-5•HCl, and Compound E-5•H2SO4 were respectively weighed to 10 mg, and 0.25 ml of physiological saline was added, and they were vortex mixed. The supernatant was filtered with a 0.22 μm filter and quantitatively analyzed by HPLC.

[5] = Blood drug concentration upon intravenous administration; assay type: in vivo; settings: SD rat, 12.5 mg/kg
Procedure: Compound E-5 was intravenously injected in 12.5 mg/kg to SD rat. 5, 15, 30, […], 120, 240, 1140 minutes after injection, the blood was taken and the drug concentration in the blood was quantitatively analyzed using an analyzer HPLC/MS/MS.

cDNA-expressed human hepatic CYP3A4, sequence (P08684 whole entry): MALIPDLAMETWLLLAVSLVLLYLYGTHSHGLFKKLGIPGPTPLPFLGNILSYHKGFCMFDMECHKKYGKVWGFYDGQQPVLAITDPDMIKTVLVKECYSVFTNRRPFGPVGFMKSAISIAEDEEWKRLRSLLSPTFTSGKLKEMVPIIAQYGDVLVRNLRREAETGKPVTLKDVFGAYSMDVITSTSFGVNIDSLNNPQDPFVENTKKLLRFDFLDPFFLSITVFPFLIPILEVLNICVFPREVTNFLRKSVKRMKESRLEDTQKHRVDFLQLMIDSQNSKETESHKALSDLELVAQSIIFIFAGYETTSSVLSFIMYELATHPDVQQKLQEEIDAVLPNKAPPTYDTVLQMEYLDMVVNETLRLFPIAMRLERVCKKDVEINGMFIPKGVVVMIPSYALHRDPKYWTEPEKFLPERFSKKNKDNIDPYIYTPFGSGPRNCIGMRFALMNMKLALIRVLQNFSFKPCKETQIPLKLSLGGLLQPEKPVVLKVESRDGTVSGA

| SMILES | IC50 [1] | MLM (%) [2] | GI50 [3] | solubility [4] | AUC [5] | half-life ([5]; read-out: Half-life (t ½, hr) (converted)) |
| --- | --- | --- | --- | --- | --- | --- |
| C=CCN1CC(=O)N2[C@@H](Cc3ccc(O)cc3)C(=O)N(Cc3cccc4c(-c5ccc(NC(=O)Nc6ccc(OC)nc6)cc5)cn(C)c34)C[C@@H]2N1C(=O)NCc1ccccc1 [Compound D-77] | > 25000 nM | 65.4% | 6.5 nM | – | – | – |
| C=CCN1CC(=O)N2[C@@H](Cc3ccc(O)cc3)C(=O)N(Cc3cccc4c(-c5ccc(NC(=S)NC(=O)OCC)nc5)cn(C)c34)C[C@@H]2N1C(=O)NCc1ccccc1 [Compound H-4] | > 25000 nM | 66.8% | 15 nM | – | – | – |
| C=CCN1CC(=O)N2[C@@H](Cc3ccc(O)cc3)C(=O)N(Cc3cccc4c(C(=O)N5CCN(CC6CCNCC6)CC5)cn(C)c34)C[C@@H]2N1C(=O)NCc1ccccc1 [Compound E-23] | 8170 nM | 73.8% | – | – | – | – |
| C=CCN1CC(=O)N2[C@@H](Cc3ccc(O)cc3)C(=O)N(Cc3cccc4c(C(=O)N5CCC(NC(=O)c6ccc(N(C)C)cc6)CC5)cn(C)c34)C[C@@H]2N1C(=O)NCc1ccccc1 [Compound E-59] | > 25000 nM | 58.5% | – | – | – | – |
| C=CCN1CC(=O)N2[C@@H](Cc3ccc(O)cc3)C(=O)N(Cc3cccc4c(C(=O)N5CCC(N6CCN(C)CC6)CC5)cn(C)c34)C[C@@H]2N1C(=O)NCc1ccccc1 [Compound E-19] | > 25000 nM | 73.4% | – | – | – | – |
| C=CCN1CC(=O)N2C(CN(Cc3cccc4c(C(=O)Nc5ccc(N6CCOCC6)nc5)cn(C)c34)C(=O)[C@@H]2Cc2ccc(O)cc2)N1C(=O)NCc1ccccc1 (stereo partly drawn) [Compound G-36] | 21100 nM | 36% | 1.3 nM | – | – | – |
| C=CCN1CC(=O)N2[C@@H](Cc3ccc(O)cc3)C(=O)N(Cc3cccc4c(-c5ccc(NC(=S)NC(=O)c6ccccc6)nc5)cn(C)c34)C[C@@H]2N1C(=O)NCc1ccccc1 [Compound H-5] | > 25000 nM | 74% | – | – | – | – |
| C=CCN1CC(=O)N2[C@@H](Cc3ccc(O)cc3)C(=O)N(Cc3cccc4c(C(=O)Nc5ccc(N6CCCCC6)nc5)cn(C)c34)C[C@@H]2N1C(=O)NCc1ccccc1 [Compound G-35] | 12200 nM | 34.9% | 1.4 nM | – | – | – |
| C=CCN1CC(=O)N2[C@@H](Cc3ccc(O)cc3)C(=O)N(Cc3cccc4c(C(=O)NCCCC(=O)O)cn(C)c34)C[C@@H]2N1C(=O)NCc1ccccc1 [Compound F-24] | > 25000 nM | 84.2% | – | – | – | – |
| C=CCN1CC(=O)N2[C@@H](Cc3ccc(O)cc3)C(=O)N(Cc3cccc4c(-c5ccc(NC(=O)Nc6ccccc6)nc5)cn(C)c34)C[C@@H]2N1C(=O)NCc1ccccc1 [Compound D-85] | > 25000 nM | 64.3% | 9.5 nM | – | – | – |
| C=CCN1CC(=O)N2[C@@H](Cc3ccc(O)cc3)C(=O)N(Cc3cccc4c(-c5ccc(C(=O)NC6CCC(NC(=O)OC(C)(C)C)CC6)cc5)cn(C)c34)C[C@@H]2N1C(=O)NCc1ccccc1 (stereo partly drawn) [Compound D-31] | > 25000 nM | 107% | 1.5 nM | – | – | – |
| C=CCN1CC(=O)N2[C@@H](Cc3ccc(O)cc3)C(=O)N(Cc3cccc4c(-c5ccc(NC(=O)c6ccc(N)nc6)cc5)cn(C)c34)C[C@@H]2N1C(=O)NCc1ccccc1 [Compound D-69] | > 25000 nM | 65% | 1.1 nM | – | – | – |
| C=CCN1CC(=O)N2[C@@H](Cc3ccc(O)cc3)C(=O)N(Cc3cccc4c(C(=O)N5CCN(CCCN(C)C)CC5)cn(C)c34)C[C@@H]2N1C(=O)NCc1ccccc1 [Compound E-13] | > 25000 nM | 89.1% | – | – | – | – |
| C=CCN1CC(=O)N2C(Cc3ccc(O)cc3)C(=O)N(Cc3cccc4c(C(=O)Nc5ccc(N6CCN(c7ccccc7OC)CC6)nc5)cn(C)c34)CC2N1C(=O)NCc1ccccc1 (stereo not drawn) [Compound G-59] | > 25000 nM | 61.9% | 4.9 nM | – | – | – |
| C=CCN1CC(=O)N2[C@@H](Cc3ccc(O)cc3)C(=O)N(Cc3cccc4c(C(=O)N5CCN(CC)CC5)cn(C)c34)C[C@@H]2N1C(=O)NCc1ccccc1 [Compound E-5, (6S,9aS)-2-allyl-N-benzyl-8-((3-(4-ethylpiperazine-1-carbonyl)-1-methyl-1H-indol-7-yl)methyl)-6-(4-hydroxybenzyl)-4,7-dioxooctahydro-1H-pyrazino[2,1-c][1,2,4]-triazine-1-carboxamide] | 8040 nM | – | 11.6 nM | 68 µg/mL (≈ 92.8 µM) | 4530 ng·h/mL | 1.59 h |
| C=CCN1CC(=O)N2C(Cc3ccc(O)cc3)C(=O)N(Cc3cccc4c(C(=O)Nc5ccc(N6CCN(c7ccc(C(F)(F)F)cc7)CC6)nc5)cn(C)c34)CC2N1C(=O)NCc1ccccc1 (stereo not drawn) [Compound G-58] | 23700 nM | 85.1% | – | – | – | – |
| C=CCN1CC(=O)N2[C@@H](Cc3ccc(O)cc3)C(=O)N(Cc3cccc4c(-c5ccc(NC(=O)NC6CCCCC6)cc5)cn(C)c34)C[C@@H]2N1C(=O)NCc1ccccc1 [Compound D-74] | > 25000 nM | 56.9% | 11.2 nM | – | – | – |
| C=CCN1CC(=O)N2[C@@H](Cc3ccc(O)cc3)C(=O)N(Cc3cccc4c(-c5ccc(NC(=O)Nc6ccccc6)nc5)cn(C)c34)C[C@@H]2N1C(=O)NCc1ccccc1 [Compound C, (6S,9aS)-2-allyl-N-benzyl-6-(4-hydroxybenzyl)-8-((1-methyl-3-(6-(3-phenylureido)pyridine-3-yl)-1H-indol-7-yl)methyl)-4,7-dioxooctahydro-1H-pyrazino[2,1-c][1,2,4]-triazine-1-carboxamide] | > 25000 nM | 64% | 9.5 nM | – | – | – |
| C=CCN1CC(=O)N2C(Cc3ccc(O)cc3)C(=O)N(Cc3cccc4c(C(=O)Nc5ccc(N6CCN(Cc7ccc(OC)cc7)CC6)nc5)cn(C)c34)CC2N1C(=O)NCc1ccccc1 (stereo not drawn) [Compound G-60] | 21500 nM | 52.8% | 6.5 nM | – | – | – |
| C=CCN1CC(=O)N2[C@@H](Cc3ccc(O)cc3)C(=O)N(Cc3cccc4c(-c5ccc(C(=O)NN6CCN(C)CC6)cc5)cn(C)c34)C[C@@H]2N1C(=O)NCc1ccccc1 [Compound D-45] | 2510 nM | 49.4% | 1.9 nM | – | – | – |
| C=CCN1CC(=O)N2[C@@H](Cc3ccc(O)cc3)C(=O)N(Cc3cccc4c(-c5ccc(C(=O)Nc6ccc(N7CCN(C(C)=O)CC7)cc6)cc5)cn(C)c34)C[C@@H]2N1C(=O)NCc1ccccc1 [Compound D-10] | > 25000 nM | 88% | 1.3 nM | – | – | – |
| C=CCN1CC(=O)N2[C@@H](Cc3ccc(O)cc3)C(=O)N(Cc3cccc4c(-c5ccc(NC(=O)NCc6ccccc6)nc5)cn(C)c34)C[C@@H]2N1C(=O)NCc1ccccc1 [Compound D-93] | 20400 nM | 68.5% | 16.1 nM | – | – | – |
| C=CCN1CC(=O)N2[C@@H](Cc3ccc(O)cc3)C(=O)N(Cc3cccc4c(-c5ccc(NC(=O)Nc6ccc(OC)nc6)cc5)cn(C)c34)C[C@@H]2N1C(=O)NCc1ccccc1 [Compound B, (6S,9aS)-2-allyl-N-benzyl-6-(4-hydroxybenzyl)-8-((3-(4-(3-(6-methoxypyridin-3-yl)ureido)phenyl)-1-methyl-1H-indol-7-yl)methyl)-4,7-dioxooctahydro-1H-pyrazino[2,1-c][1,2,4]-triazine-1-carboxamide] | > 25000 nM | 65% | 6.5 nM | – | – | – |
| C=CCN1CC(=O)N2[C@@H](Cc3ccc(O)cc3)C(=O)N(Cc3cccc4c(-c5ccc(NC(=O)Nc6ccccc6)cc5)cn(C)c34)C[C@@H]2N1C(=O)NCc1ccccc1 [Compound D-73] | > 25000 nM | 73.4% | 14.4 nM | – | – | – |
| C=CCN1CC(=O)N2[C@@H](Cc3ccc(O)cc3)C(=O)N(Cc3cccc4c(C(=O)N5CC(N6CCN(C)CC6)C5)cn(C)c34)C[C@@H]2N1C(=O)NCc1ccccc1 [Compound E-71] | > 25000 nM | 67.2% | – | – | – | – |
